Laboratory results reported in patent US9416142B2, “Griseofulvin derivatives” (PIERRE FABRE MEDICAMENT, priority 2012, dated 2016).

Experiments:
Format in all cases: cell-based
[1] = tested on: HCC1937 (primary ductal breast carcinoma cell line); assay: Cytotoxic activity, cell proliferation (ATPLite) on HCC1937 line; settings: Homo sapiens, 48 hours after treatment
Method: (§1) Culture of Lines and Measurement of Cell Viability:
(§2) The lines NIE115 (ATCC, CRL2263), MDA-MB-231 (ATCC, HTB26) and HSC-1 (Health Science Research Resources Bank, JCRB1015) were cultured in DMEM medium (Dulbecco's modified Eagle medium) supplemented with 2 mM of L-Glutamine (Sigma, G7513) and 10% foetal calf serum (Hyclone, SH30109.03) or 20% for the HSC-1 cells. The HCC-1937 (ATCC, CRL2336) and A549 (ATCC, CCL185) lines were cultured in RPMI medium (Roswell Park Memorial Institute medium) supplemented with 10% foetal calf serum and 2 mM of L-Glutamine. Finally, the SCC114 line (DSMZ, ACC662) was cultured in MEM medium (Minimum Essential Medium Eagle) supplemented with 10% foetal calf serum and 2 mM of L-Glutamine. Initially, in 96-well plates (Perkin Elmer, 6005668), the cells were seeded in their respective culture media with 750 cells per well for NIE115; 1000 cells per well for SCC114 and A549; 2000 cells per well for HCC-1937 and HSC-1; 2500 cells per well for MDA-MB-231. Cascade dilution of each compound was performed in dimethylsulfoxide (DMSO) (Sigma, D8418) using 10 mM stock solutions in 100% DMSO. Each of the dilutions was added to the cells 24 hours after seeding. Under these conditions the final solvent concentration was 0.1% DMSO. Reading of cell proliferation was conducted 72 hours after addition of products with the ATPLite kit (Perkin Elmer, 6016947) and following the manufacturer's directions except in the case of the HCC-1937 line for which this reading was carried out 48 hours after treatment. Analysis of proliferation results was performed by comparing with conditions in which solely the vehicle was added to the cells. The dose-response curves obtained were analysed using Prism 4.03 software (GraphPad Software Inc.) to determine the concentration of each compound allowing 50% inhibition of cell proliferation (IC50). As examples, the cytotoxic properties of some compounds of the invention evaluated on the lines A549 (lung cancer cell line), MDA-MB-231 (mammary adenocarcinoma cell line), NIE115 (mouse brain neuroblastoma cell line), HCC-1937 1 (primary ductal breast carcinoma cell line), HSC-1 (cutaneous squamous carcinoma cell line) and SCC114 (oral squamous carcinoma cell line) are reported in Table 1, as compared with griseofulvin used as control product. The concentration values are expressed in micromolar units (μM).
The activity of the compounds of the invention on the […] line was compared with that of known cytotoxics (Epotilone B and Vinflunine).

[2] = tested on: SCC114 (oral squamous carcinoma cell line); assay: Cytotoxic activity, cell proliferation (ATPLite) on SCC114 line; settings: 50% inhibition of cell proliferation, 72 hours after addition
Method: as §1, §2

[3] = tested on: N1E-115 (mouse brain neuroblastoma cell line); assay: Cytotoxic activity, cell proliferation (ATPLite) on N1E-115 line; settings: 50% inhibition of cell proliferation, 72 hours after addition
Method: as §1
as §2, with “Analysis of proliferation results was performed by comparing with conditions in which solely the vehicle was added to the cells. The dose-response curves obtained were analysed using Prism 4.03 software (GraphPad Software Inc.) to determine the concentration of each compound allowing 50% inhibition of cell proliferation (IC50).” left out, “The concentration values are expressed in micromolar units (μM).” left out

[4] = tested on: MDA-MB-231 (mammary adenocarcinoma cell line); assay: Cytotoxic activity, cell proliferation (ATPLite) on MDA-MB-231 line; settings: Homo sapiens, 50% inhibition of cell proliferation, 72 hours after addition
Method: as §1
as §2, with “Analysis of proliferation results was performed by comparing with conditions in which solely the vehicle was added to the cells. The dose-response curves obtained were analysed using Prism 4.03 software (GraphPad Software Inc.) to determine the concentration of each compound allowing 50% inhibition of cell proliferation (IC50).” left out, “The concentration values are expressed in micromolar units (μM).” left out

[5] = tested on: A549 (lung cancer cell line); assay: Cytotoxic activity, cell proliferation (ATPLite) on A549 line; settings: Homo sapiens, 50% inhibition of cell proliferation, 72 hours after addition
Method: as §1
as §2, with “Analysis of proliferation results was performed by comparing with conditions in which solely the vehicle was added to the cells. The dose-response curves obtained were analysed using Prism 4.03 software (GraphPad Software Inc.) to determine the concentration of each compound allowing 50% inhibition of cell proliferation (IC50).” left out, “The concentration values are expressed in micromolar units (μM).” left out

[6] = tested on: HSC-1 (cutaneous squamous carcinoma cell line); assay: Cytotoxic activity, cell proliferation (ATPLite) on HSC-1 line; settings: 50% inhibition of cell proliferation, 72 hours after addition
Method: as §1
The lines NIE115 (ATCC, CRL2263), MDA-MB-231 (ATCC, HTB26) and HSC-1 (Health Science Research Resources Bank, JCRB1015) were cultured in DMEM medium (Dulbecco's modified Eagle medium) supplemented with 2 mM of L-Glutamine (Sigma, G7513) and 10% foetal calf serum (Hyclone, SH30109.03) or 20% for the HSC-1 cells. The HCC-1937 (ATCC, CRL2336) and A549 (ATCC, CCL185) lines were cultured in RPMI medium (Roswell Park Memorial Institute medium) supplemented with 10% foetal calf serum and 2 mM of L-Glutamine. […] Reading of cell proliferation was conducted 72 hours after addition of products with the ATPLite kit (Perkin Elmer, 6016947) and following the manufacturer's directions except in the case of the HCC-1937 line for which this reading was carried out 48 hours after treatment. […] As examples, the cytotoxic properties of some compounds of the invention evaluated on the lines A549 (lung cancer cell line), MDA-MB-231 (mammary adenocarcinoma cell line), NIE115 (mouse brain neuroblastoma cell line), HCC-1937 1 (primary ductal breast carcinoma cell line), HSC-1 (cutaneous squamous carcinoma cell line) and SCC114 (oral squamous carcinoma cell line) are reported in Table 1, as compared with griseofulvin used as control product. […]

[7] = Table 2, comparison with known cytotoxics and 2′-SR7 compounds
[8] = Table 1, 50% inhibition of cell proliferation

Compound | IC50 [1, 7] [µM] | IC50 [2] [µM] | IC50 [1, 8] [µM] | further results
CC[C@]12C=CCN3CC[C@@]4(c5cc([C@@]6(C(=O)OC)C[C@@H]7C[C@@H](C(C)(F)F)CN(Cc8c6[nH]c6ccccc86)C7)c(OC)cc5N(C)[C@H]4[C@@](O)(C(=O)OC)[C@@H]1OC(C)=O)[C@@H]32 [Vinflunine, reference compound] | > 10 | – | – | –
COc1cc(OC)c2c(c1Cl)O[C@@]1(C=C([S+]([O-])Cc3ccccc3)C(=O)C[C@H]1C)C2=O (stereo partly drawn) [Compound 97, (1′S,6′R)-3′-(benzylsulfinyl)-7-chloro-4,6-dimethoxy-6′-methyl-3H-spiro[benzofuran-2,1′-cyclohex[2]ene]-3,4′-dione] | – | 0.021 | – | –
COc1cc(OC)c2c(c1Cl)O[C@]1(C2=O)C(S(=O)(=O)Cc2ccccc2)=CC(=O)C[C@H]1C [Compound 145, (1′R,6′R)-2′-(benzylsulfonyl)-7-chloro-4,6-dimethoxy-6′-methyl-3H-spiro[benzofuran-2,1′-cyclohex[2]ene]-3,4′-dione] | – | 0.385 | 1.4 | IC50 [3]: 3 µM; IC50 [4]: 2 µM; IC50 [5]: 1.5 µM
COc1cc(OC)c2c(c1Cl)O[C@@]1(C=C([S+]([O-])c3ccccc3)C(=O)C[C@H]1C)C2=O (some centres unmarked) [Compound 95] | – | 0.25 | 0.43 | IC50 [3]: 1 µM; IC50 [4]: 0.54 µM; IC50 [5]: 0.25 µM
COc1cc(OC)c2c(c1Cl)O[C@]1(C2=O)C(S(=O)(=O)CCN(C)C)=CC(=O)C[C@H]1C [Compound 146, (1′R,6′R)-7-chloro-2′-(2-(dimethylamino)ethylsulfonyl)-4,6-dimethoxy-6′-methyl-3H-spiro[benzofuran-2,1′-cyclohex[2]ene]-3,4′-dione] | – | – | 5.9 | –
COc1cc(OC)c2c(c1Cl)O[C@@]1(C=C(S(=O)(=O)Cc3ccccc3)C(=O)C[C@H]1C)C2=O [Compound 96, (1′S,6′R)-3′-(benzylsulfonyl)-7-chloro-4,6-dimethoxy-6′-methyl-3H-spiro[benzofuran-2,1′-cyclohex[2]ene]-3,4′-dione] | – | – | 0.92 | –
COc1cc(OC)c2c(c1Cl)OC1(C2=O)C(SCc2ccccc2)=CC(=O)C[C@H]1C (some centres unmarked) [A, reference compound] | > 10 | – | – | –
COC1=CC(=O)C[C@@H](C)[C@]12Oc1c(Cl)c(OC)cc(OC)c1C2=O [Griseofulvin] | – | 6.4 | > 10 | IC50 [3]: > 10 µM; IC50 [4]: > 10 µM; IC50 [6]: > 10 µM; IC50 [5]: > 10 µM
COc1cc(OC)c2c(c1Cl)O[C@@]1(C=C(S(=O)(=O)c3ccccc3)C(=O)C[C@H]1C)C2=O [Compound 98, (1′S,6′R)-7-chloro-4,6-dimethoxy-6′-methyl-3′-(phenylsulfonyl)-3H-spiro[benzofuran-2,1′-cyclohex[2]ene]-3,4′-dione] | – | 0.41 | 0.7 | –
COc1cc(OC)c2c(c1Cl)O[C@]1(C2=O)C(S(=O)(=O)c2ccccc2)=CC(=O)C[C@H]1C [Compound 147, (1′R,6′R)-7-chloro-4,6-dimethoxy-6′-methyl-2′-(phenylsulfonyl)-3H-spiro[benzofuran-2,1′-cyclohex[2]ene]-3,4′-dione] | – | – | 1.6 | –
C/C(=C\c1csc(C)n1)[C@@H]1C[C@@H]2O[C@]2(C)CCC[C@H](C)[C@H](O)[C@@H](C)C(=O)C(C)(C)[C@@H](O)CC(=O)O1 [Epotilone B, reference compound] | > 10 | – | – | –
COc1cc(OC)c2c(c1Cl)O[C@]1(C2=O)C(SCCN(C)C)=CC(=O)C[C@H]1C (racemic) [B, reference compound] | > 10 | – | – | –
